Results taken from patent US4321376A, “Neplanocin-B and -F” (Toyo Jozo Kabushiki Kaisha, priority 1979, dated 1982).

What was measured:
[1] = Nature (basicity); type: physicochemical
[2] = Solubility; type: physicochemical; conditions: for Solubility: insoluble in: solvents in which insoluble; for Solubility: soluble in: solvents in which soluble
[3] = test system: mice; experiment: Acute toxicity, intraperitoneal administration to mice; type: in vivo, mouse; conditions: 100 mg/kg
[4] = Anti-depressant activity; conditions: no test details given

Compound | Nature [1] | Solubility: insoluble in [2] | Solubility: soluble in [2] | Acute toxicity: mortalities [3] | anti-depressant activity [4]
Nc1ncnc2c1ncn2C1C(O)C=C(CO)C1O (stereo not drawn) [neplanocin F] | weakly basic | Insoluble: ethyl acetate, chloroform, benzene and diethyl ether | Soluble: water, dimethyl sulphoxide and acetic acid | No mortalities were observed | 
Nc1ncnc2c1ncn2C1C(O)C2OC2(CO)C1O (stereo not drawn) [neplanocin B] | weakly basic | Insoluble: ethyl acetate, chloroform, benzene and diethyl ether | Soluble: water and dimethyl sulphoxide | No mortalities were observed | has an anti-depressant activity
